Test results published in patent US12144788B2, “Visual cycle modulators” (CASE WESTERN RESERVE UNIVERSITY, priority 2017, dated 2024).

Key:
[1] = target: RPE65 (Bos taurus, UniProt Q28175); assay: in vitro retinoid isomerase activity assay with bovine RPE microsomes; conditions: for times more potent compared to emixustat (racemic): RPE65 inhibition, bovine RPE microsomes; for inhibition against retinoid isomerization: up to concentrations of 50 μM
Experimental: Primary amines were pre-incubated with bovine RPE microsomes at room temperature for 5 min, then all-trans-retinol was added and the mixtures were incubated at 37° C. All incubation mixtures were quenched by the addition of methanol after 1 h of incubation. Inhibition of RPE65 enzymatic activity was measured as a decline in 11-cis-retinol production.
Synthesized primary amine (1 μl in DMF, with the final concentration ranging between 50 nM and 50 μM) was added to 10 mM Bis-Tris propane/HCl buffer, pH 7.4, containing 150 μg RPE microsomes, 1% BSA, 1 mM disodium pyrophosphate, and 20 μM aporetinaldehyde-binding protein 1 (CRALBP). The resulting mixture was pre-incubated at room temperature for 5 min. Then, all-trans-retinol (1 μl in DMF, at a final concentration of 20 μM) was added. The resulting mixture was incubated at 37° C. for 1 h. The reaction was quenched by adding 300 μl methanol, and products were extracted with 300 μl hexanes. Production of 11-cis-retinol was quantified by normal-phase HPLC with 10% (v/v) EtOAc in hexanes as the eluent at a flow rate of 1.4 ml/min. Retinoids were detected by monitoring their absorbance at 325 nm and quantified based on a standard curve representing the relationship between the amount of synthetic 11-cis-retinol standard and the area under the corresponding chromatographic peak.
To test these structural predictions, we examined the inhibitory activity of the compounds against RPE65 activity in an in vitro retinoid isomerase assay using bovine RPE microsomes as the enzyme source.

[2] = test system: Abca4−/−Rdh8−/− mice; assay: protection against light-induced retinal degeneration (OCT, ONL thickness); assay type: in vivo, mouse
Experimental: FIGS. 7(A-B) illustrate protective effects of MB compounds against light-induced retinal degeneration in Abca4^−/−Rdh8^−/− mice. Drugs were administrated at the indicated doses to 4-6 week-old Abca4^−/−Rdh8^−/− mice (weight ˜20 g) by oral gavage. After a 24 h dark adaptation, mice were exposed to 10,000 lux light for 30 min and then returned to a dark environment for 3 days. (A) Representative OCT images of mice treated with MB compounds. A dramatic decrease in the ONL indicates advanced retinal degeneration. The black scale beside the DMSO image represents 50 μm. (B) Retinal protective effects exerted by MB compounds as quantified by average ONL thickness. Only non-scattering ONL layers were measured. For images in which the ONL layer boundary was obscured due to light scattering, the ONL length was recorded as 0 μm. Error bars represent standard deviations; n=3-5 for each group.
(§1) Abca4^−/−Rdh8^−/− mice on a C57BL/6J background were generated as previously described. Male and female WT mice with C57BL/6J backgrounds were obtained from The Jackson Laboratory. Abca4^−/−Rdh8^−/− mice used in this study were homozygous for the Leu450 allele of Rpe65 as determined by a genotyping protocol published previously and free of Crb1/rd8 and rd/rd mutations Animals were housed either in the animal facility at the Case Western Reserve University School of Medicine, where they received a standard chow diet (LabDiet 5053) and were maintained under a 12-h light (˜300 lux) and 12-h dark cycle or at the Cole Eye Institute animal facility where they were. Mice were dark adapted overnight prior to all experiments. A cohort of Rdh8^−/−Abca4^−/− or C57BL/6J mice was used when they reached the age of 1 to 2 months, and both sexes were used evenly. All tested primary amines were suspended in 100 μl soybean oil with less than 10% (v/v) DMSO and were administered by oral gavage with a 22-gauge feeding needle. Experimental manipulations in the dark were done under dim red light transmitted through a Kodak No. 1 Safelight Filter (transmittance >560 nm).
After dark adaptation for 24 h, Abca4^−/−Rdh8^−/− mice with pupils dilated by 1% tropicamide were exposed to fluorescent light (10,000 lux; 150 W spiral lamp; Commercial Electric) for 30 min in a white paper bucket (Papersmith) and then kept in the dark for an additional 3 days. Development of retinal degeneration was then determined by ultra-high-resolution spectral domain OCT (SD-OCT; Bioptigen) and ERG as previously described.
To examine the ability of […] cause retinal damage in the absence of treatment with protective agents. Three days later retinas were imaged in vivo by optical coherence tomography, with preservation of outer nuclear layer thickness and light scattering properties serving as markers for retinal health. MB-001, which is capable of preventing light-induced retinal degeneration through both direct RPE65 inhibition as well as retinal sequestration served as a positive control for these experiments.

[3] = test system: visual chromophore regeneration in C57BL6J mouse eyes; assay: visual chromophore recovery assay (ocular 11-cis-retinal by HPLC after bleach); assay type: in vivo; conditions: for visual chromophore regeneration: 10 μg/mouse oral gavage 24 h before light exposure (95% bleach), 6 h dark adaptation; for effect on 11-cis-retinal recovery / visual cycle function: 500 μg (0.5 mg/mouse) oral gavage 24 h before light exposure
Experimental: FIG. 4 illustrates inhibition of visual chromophore regeneration in C57BL6J mouse eyes by MB compounds. The MB drugs were administrated to mice by oral gavage 24 h prior to light exposure for 10 min. Then all mice recovered under darkness for 6 h.
as §1
After bright light exposure resulting in photoactivation of 95% of rhodopsin, mice were kept in the dark for 6 h. Then, the animals were euthanized and their eyes were collected and homogenized in 10 mM sodium phosphate buffer, pH 7.4, containing 50% methanol (v/v) and 40 mM hydroxylamine. The resulting mixture was extracted with 4 ml of hexanes.
Next, we tested the effects of the MB compound series on retinoid cycle function in the living mouse. […] After the light treatment, mice were allowed to dark adapt for 6 h before their ocular retinoid content was determined by HPLC. […] To examine the possibility that the lack of MB-008 efficacy at 24 h was due to insufficient concentrations resulting from a shorter elimination half-life or poorer bioavailability, we repeated the experiment with the mice subjected to light exposure 4 h after MB-008 administration. A 100 μg dose of MB-008 suppressed visual chromophore regeneration by ˜80%, supporting the idea that the retinal concentration of MB-008 could be sub-effective at the longer post-treatment light challenge.

[4] = test system: C57BL/6J mice; assay: in vivo dark-adapted ERG recordings after bleach; design: species or system mouse; conditions: gavage 1 day before bleach, doses indicated effective by retinoid analysis
Experimental: FIG. 5 illustrates ERG responses of mice treated with visual cycle modulators. Oral gavage was used to administer vehicle or MB compounds to mice 24 h prior to 10 min light exposure followed by 6 h of dark adaptation. Dark-adapted ERGs were obtained to strobe flash stimuli.
C57BL/6J mice aged 1.5-4 months were anesthetized with ketamine (80 mg/kg) and xylazine (16 mg/kg) after overnight dark adaptation. Mydriatic eye drops were used to dilate the pupil (1% tropicamide; 2.5% phenylephrine). ERGs were obtained using an active electrode that contacted the corneal surface; needle electrodes placed in the cheek and tail provided reference and ground leads, respectively. Strobe stimuli were presented to the dark-adapted eye in an LKC (Gaithersburg, MD) ganzfeld. Responses were amplified, averaged and stored using an LKC UTAS E-3000 signal averaging system.
Baseline dark-adapted ERGs were recorded from each mouse. After a minimum 1 day interval, MB compounds or vehicle were administered by gavage at 9 a.m. The next morning, mydriatic eye drops were used to dilate the pupils and mice were then exposed to a 10-minute 10,000 lux bleach. Mice were dark-adapted for 6 hours, after which ERGs were recorded.
We next examined the impact of these compounds on retinal function, measured using the electroretinogram (ERG). FIG. 5 presents a family of dark-adapted ERGs measured 6 hours after mice underwent a 95% bleach presented 1 day following gavage administration of vehicle or MB compound molecules at doses indicated to be effective by retinoid analysis. […] In comparison, mice administered with MB compound molecules had had reduced amplitude ERGs indicative of incomplete bleaching recovery. […] In response to higher luminance stimuli, reproducible responses were observed. That these reflect dark-adapted cone-mediated responses is supported by their similarity to responses obtained from transducin KO mice which lack rod-mediated activity, while retaining normal cone-mediated responses, and have a very similar ERG phenotype.

[5] = identification of atRAL Schiff base conjugates with MB compounds in mouse eyes; assay type: in vivo; conditions: Abca4−/−Rdh8−/− mice, 50 mg/kg oral gavage, bright light exposure 10 min; mass spectrometry versus standards
Experimental: FIGS. 6(A-B) illustrate identification of retinal Schiff base conjugates in Abca4^−/− Rdh8^−/− mice treated with MB-005 and MB-006. Following drug administration, mice were exposed to intense light for 10 min. After a 30 min recovery under darkness, animals were sacrificed and retinoids were extracted from the eyes. (A, B) Shown in the top panels are selective ion chromatograms for MB-005-retinal conjugates (A, at m/z=572.6) and MB-006-retinal conjugates (B, at m/z=588.6). Panels on the bottom show the mass spectra of the peaks coinciding with the retention times of their authentic standards. The insets display the MS/MS fragmentation patterns of the two imines, which were identical to the corresponding standards.
MB-005 or MB-006 (50 mg/kg) were administrated by oral gavage to Abca4^−/−Rdh8^−/− mice 24 h prior to light exposure. After exposure to fluorescent light for 10 min, animals were euthanized and their eyes were collected and homogenized in acetonitrile. After centrifugation, the supernatant was concentrated to 400 μl under vacuum. […]
With the effects of these compounds on visual cycle function established we next sought to examine their ability to form retinal-Schiff base conjugates in vivo. […] Retinoids were extracted and analyzed by mass spectrometry. […]

[6] = 1 mg per mouse oral gavage 24 h before light

Sequence of RPE65 (Q28175 whole entry): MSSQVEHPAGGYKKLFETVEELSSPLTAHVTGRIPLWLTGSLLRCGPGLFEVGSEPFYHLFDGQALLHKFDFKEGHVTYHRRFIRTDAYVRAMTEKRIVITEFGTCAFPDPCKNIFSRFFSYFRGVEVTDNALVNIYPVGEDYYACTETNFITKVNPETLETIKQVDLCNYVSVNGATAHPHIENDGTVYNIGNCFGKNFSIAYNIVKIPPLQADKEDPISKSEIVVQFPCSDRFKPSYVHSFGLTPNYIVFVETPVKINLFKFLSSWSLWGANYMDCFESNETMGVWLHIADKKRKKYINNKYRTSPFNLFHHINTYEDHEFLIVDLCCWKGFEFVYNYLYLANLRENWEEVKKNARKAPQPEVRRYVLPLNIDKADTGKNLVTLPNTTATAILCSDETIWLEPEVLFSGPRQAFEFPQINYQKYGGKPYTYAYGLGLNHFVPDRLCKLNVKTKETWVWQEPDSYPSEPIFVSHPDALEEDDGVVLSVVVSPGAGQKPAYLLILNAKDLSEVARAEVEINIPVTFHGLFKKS

SMILES | IC50 [1] [nM] | times more potent compared to emixustat (racemic) [1] | inhibition against retinoid isomerization [1] | visual chromophore regeneration [3] | dark-adapted ERG 6 hours after 95% bleach [4] | protection against light-induced retinal degeneration [2, 6] | effect on 11-cis-retinal recovery / visual cycle function ([3]; 6 h dark) | further results
CCCC(CCO)COc1cccc(C(O)CCN)c1 (mixture of isomers) [MB-008, 3-((3-(3-Amino-1-hydroxypropyl)phenoxy)methyl)hexan-1-ol] | 189 ± 31 | ~1.2 times | – | recovered visual chromophore to a level comparable to vehicle-treated mice | – | – | – | protection against light-induced retinal degeneration ([2]; doses as high as 0.25 mg, administered 24 h prior to the light challenge): poorly protective; effect of shortening the duration between administration and light challenge on protection ([2]; from 24 to 6 h): substantially improved the protective effects; protection against light-induced retinal degeneration ([2]; shorter time period (6 h), dose ten-times higher than that used for MB-004): full protection; suppression of visual chromophore regeneration ([3]; 100 μg dose, light exposure 4 h after administration): ~80%; suppression in visual cycle function ([3]; ten-fold higher dose than 10 μg, oral gavage 24 h before light exposure, 6 h dark): 30%
CC1=C(COc2cccc([C@H](O)CCN)c2)C(C)(C)CCC1 [MB-001, reference compound] | – | – | – | – | responses to low luminance stimuli that were not different from background noise levels | – | – | protection against light-induced retinal degeneration ([2]; 50 μg oral gavage 24 h before light, positive control): fully protective

Now from value to molecule, other results behind:

IC50 [1] [nM] | times more potent compared to emixustat (racemic) [1] | inhibition against retinoid isomerization [1] | SMILES | visual chromophore regeneration [3] | dark-adapted ERG 6 hours after 95% bleach [4] | protection against light-induced retinal degeneration [2, 6] | effect on 11-cis-retinal recovery / visual cycle function ([3]; 6 h dark) | further results
106 ± 16 | approximately 2.2 times | – | CCCC(CCC)COc1cccc([C@H](O)CCN)c1 [MB-004] | dramatically suppressed visual chromophore regeneration | responses to low luminance stimuli that were not different from background noise levels | – | – | protective effect relative to MB-001 ([2]; 25 μg oral gavage 24 h before 10,000 lux light, OCT 3 days later): approximately 80%
– | – | minimal or no inhibition | CC(C)c1cc(OCC2CCCCC2)cc(C(O)CCN)c1 (stereo not drawn) [MB-006, 3-Amino-1-(3-(cyclohexylmethoxy)-5-isopropylphenyl)propan-1-ol] | – | less incomplete recovery | protective | strongly suppressed visual cycle function | retinal Schiff base adducts in eye extracts [5]: contained compounds matching the expected molecular weight of the respective Schiff base adducts; protection against light-induced retinal degeneration ([2]; 0.5 mg per mouse oral gavage 24 h before light): not; visual chromophore production, % of the vehicle control ([3]; 500 μg oral gavage 24 h before light exposure): ~30%; visual chromophore production, % of the vehicle control ([3]; 1000 μg oral gavage 24 h before light exposure): ~20%
– | – | minimal or no inhibition | CC1=C(COc2cc(C(C)C)cc(C(O)CCN)c2)C(C)(C)CCC1 (stereo not drawn) [MB-007, 3-Amino-1-(3-isopropyl-5-((2,6,6-trimethylcyclohex-1-en-1-yl)methoxy)phenyl)propan-1-ol] | – | – | no more protective than vehicle control | minimal effects | inhibition of 11-cis-retinal recovery (suppression of visual chromophore regeneration) ([3]; two-fold higher dose than 500 μg (1 mg per mouse), oral gavage 24 h before light exposure): ~50%
